Tested on: Dm-HS-1 TTC ∆ s.c. (DNA, aptamer, no side-chain at 22 (codon 2 TTC); others as HFNAP: fluorophenyl at 19; allylamine at 25, 37; alcohol at 28, 34, 49; phenol at 31, 46; cyclopentyl at 40; cyclopropyl at 43, 58; imidazole at 52, 55, 61) GAAAGCAGGACTGGAGATCGATTCTGGTGCTGTTGATCTCCGCCATTGTGCTCCTACCCTTCACAGACCGAACTAGAGCTT
Experiment: microscale thermophoresis
Settings: 5 mM KCl, 1 mM MgCl2, 1 mM CaCl2 added to HBS-P+; HBS-P+ buffer, 25 °C

`COc1cccc2c1C(=O)c1c(O)c3c(c(O)c1C2=O)C[C@@](O)(C(C)=O)C[C@@H]3O[C@H]1C[C@H](N)[C@H](O)[C@H](C)O1` was tested, and the Kd was 16.2 ± 3.2 nM.

— publication PMC9352670 (2022)
